Assay results taken from patent US20200223826A1, “Glucose-6-Phosphate Dehydrogenase (G6PD)-Modulating Agents And Methods Of Treating G6PD Deficiency” (The Board of Trustees of the Leland Stanford Junior …, priority 2017, published 2020).

Experiments:
human erythrocytes = assay: Erythrocyte refrigerated storage assay, protein leakage; type: cell-based; details: AG1 1 μM
Method: De-identified blood samples were obtained from the Stanford Blood Center. Erythrocytes were collected by filtering the samples through a cellulose slurry to remove platelets and leukocytes and then washed with saline. G6PD activity was measured (Beutler E. Red cell metabolism: A manual of biochemical methods (3rd edition). Grune & Stratton (1984)). […] A 5% erythrocyte suspension was pre-incubated with 1-5 μM AG1 at 4° C. overnight, which was followed by treatment with (or without) either 1 mM chloroquine (CQ) or 1 mM diamide for 3-4 hours at 37° C. (for hemolysis assay with chloroquine, the mixture was incubated under light). Then centrifugation at 1,000 rpm for 5 minutes was followed. Hemoglobin release in the supernatant was monitored by measuring absorbance at 540 nm. […] After wash, the samples were lysed with 0.1% Triton X-100 (final concentration), and the florescence was analyzed with excitation/emission at 485/525 nm. GSH measurement was determined using a Cayman glutathione assay kit (Cayman Chemicals, 703002). […] The absorbance was read at 412 nm. For storage assay, a 5% erythrocyte suspension was stored at 4° C. with and without 1 μM AG1, and hemolysis and G6PD activity were monitored every week for 28 days to examine whether AG1 improves preservation of erythrocytes over time. Protein leakage was also examined by measuring the absorbance of the supernatant of samples at 280 nm. […]

[1] = tested on: band 3 protein in human erythrocytes; assay: Band 3 protein clustering in erythrocytes; type: cell-based; details: chloroquine or diamide treatment

SCCNCCc1c[nH]c2ccccc12 [AG1, 2-[2-(1H-indol-3-yl)ethylamino]ethanethiol]
protein leakage (human erythrocytes): decreased | band 3 protein aggregation [1]: alleviated
